From patent publication US12006373B1, “Identification and evaluation of novel peptide ligands specific to human CD3 epsilon” (Board of Trustees of the University of Alabama, for and on …, priority 2020, dated 2024)

Legend:
[1] = target: T1, human recombinant CD3ε protein (Homo sapiens, UniProt P07766); test: Biopanning of Ph.D.-7 phage display peptide library, sequencing of plaques; details: after the 5th round of biopanning, 18 out of 20 plaques; phage clone displaying the sequence
T1 construct: purchased Sino Biological
Description: 1.2 Biopanning: Screening of the Ph.D.-7 phage display peptide library on human recombinant CD3ε protein as the target protein was carried out according to the manufacturer's protocol with modifications. Briefly, 50 μl of a 50% aqueous suspension of Pierce protein A/G magnetic beads was washed with 1 ml of TBST washing buffer (tris-buffered saline with 0.1% tween) on a magnetic separator and blocked in blocking buffer (0.1 M NaHCO3 (pH 8.6) with 0.5% (w/v) BSA) for 1 h at 4° C. on a rotator. Two picomoles of target protein was mixed with 10^11 pfu (plaque-forming unit) of the phage library in 200 μl of TBST buffer and incubated for 15 minutes at room temperature on a rotator and then incubated with pre-washed and pre-blocked magnetic beads for 15 minutes at room temperature on a rotator. After the microbeads were washed vigorously for 15 times with 1 ml TBST, the bound phage was eluted by 1 ml of glycine buffer (0.2 M Glycine-HCl (pH 2.2)+0.1% (w/v) BSA) and neutralized by addition of 150 μl of 1 M Tris-HCl (pH 9.1). […]
1.3 DNA Sequencing of Phage Clones: After the third and fifth round of biopanning, the ssDNA of selected phage clones was harvested following the standard protocol (NEB). […] The purified DNA of each clone was sequenced by Sanger sequencing (UAB Genomics Core Laboratories) using the −96 gIII primer and analyzed using Geneious Prime 2019 software suite.

[2] = target: T2, CD3ε expressed on Jurkat cells (Homo sapiens, UniProt P07766); test: Binding assay of peptide tetramers on Jurkat cells by flow cytometry; details: for Kd: peptide tetramer on Alexa Fluor 488 streptavidin, CD3ε-expressing Jurkat cells, read-out: affinity (Kd); for binding of peptide tetramers to Jurkat cells: varying tetramer concentrations, 30 minutes on ice
T2 construct: against CD3ε expressed on Jurkat cells; host or cells: Jurkat T cells (E6-1)
Description: The results were analyzed using FlowJo software.

[3] = test system: 2PK3 mouse B lymphoma cells; details: varying tetramer concentrations; cells lack TCR-CD3

T2 sequence (P07766 23-207): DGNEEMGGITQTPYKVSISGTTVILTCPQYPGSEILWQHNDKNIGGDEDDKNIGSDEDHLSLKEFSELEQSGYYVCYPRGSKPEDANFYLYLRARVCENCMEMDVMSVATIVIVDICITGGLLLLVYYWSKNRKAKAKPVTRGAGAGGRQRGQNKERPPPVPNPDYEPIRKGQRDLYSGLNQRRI
T2 sequence (P09693 23-182 partner): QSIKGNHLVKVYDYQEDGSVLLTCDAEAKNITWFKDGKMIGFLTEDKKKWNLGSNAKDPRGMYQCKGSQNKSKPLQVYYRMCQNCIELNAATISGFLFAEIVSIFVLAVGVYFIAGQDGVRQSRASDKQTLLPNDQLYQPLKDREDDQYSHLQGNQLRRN
T2 sequence (P04234 22-171 partner): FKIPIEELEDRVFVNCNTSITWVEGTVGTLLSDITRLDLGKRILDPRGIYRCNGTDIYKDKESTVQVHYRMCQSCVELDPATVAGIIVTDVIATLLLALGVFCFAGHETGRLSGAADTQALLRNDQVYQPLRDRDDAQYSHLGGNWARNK
T2 sequence (P20963 22-164 partner): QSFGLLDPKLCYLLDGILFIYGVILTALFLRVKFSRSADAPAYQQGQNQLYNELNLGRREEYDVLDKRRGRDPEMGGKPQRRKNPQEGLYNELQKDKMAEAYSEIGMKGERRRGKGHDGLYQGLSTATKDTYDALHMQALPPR
T2 sequence (P01848 whole entry partner): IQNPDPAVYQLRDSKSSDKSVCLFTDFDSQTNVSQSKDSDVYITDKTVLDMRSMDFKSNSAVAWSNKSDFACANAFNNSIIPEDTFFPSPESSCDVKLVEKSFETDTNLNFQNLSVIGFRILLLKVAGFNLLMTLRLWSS
T2 sequence (P01850 whole entry partner): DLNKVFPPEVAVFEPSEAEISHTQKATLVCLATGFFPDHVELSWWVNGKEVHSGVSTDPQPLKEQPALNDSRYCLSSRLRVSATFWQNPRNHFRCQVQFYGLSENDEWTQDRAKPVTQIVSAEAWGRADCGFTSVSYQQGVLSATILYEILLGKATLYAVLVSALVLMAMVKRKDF
T1 sequence (P07766 23-207): as the sequence (P07766 23-207) above

share of tested plaques occupied by the clone [1] [%] | Substance | Kd [2] [µM] | binding of peptide tetramers to Jurkat cells [2] | binding of peptide tetramers to 2PK3 cells [3]
90 | WSLGYTG [anti-CD3ε peptide 13] |  |  | 
 | FWSSPQMGGGS [SEQ ID NO: 30]-PEG6-K-biotin [anti-CD3ε peptide 11 tetramer] | ~100 | incremental binding to the Jurkat cells in a dose-dependent manner | no specific attachment
 | WSLGYTGGGGS [SEQ ID NO: 31]-PEG6-K-biotin [anti-CD3ε peptide 13 tetramer] | ~100 | incremental binding to the Jurkat cells in a dose-dependent manner | no specific attachment
